Laboratory results reported in PMC5577134 (Nature Communications, 2017).
≈ marks a conversion by molar mass, not a printed value. Like-named read-outs stand apart in the source and are kept apart here. Marks after values point to notes of the source that are not given here. *1 amine or outer side, *2 acyl side, *3 side chain or, on linkers, in order; H or OH if unused. Where a SMILES comes first, the peptide text is derived from it. [ ]: non-standard residue; d: D form. ξ: configuration not given here. Trp(1-(1,1-Me2-allyl)) = C=CC(C)(C)n1cc(C[C@H](N)C(=O)O)c2ccccc21; NMeGlu(4S-Me) = C[C@@H](C[C@@H](C(=O)[*:2])N(C)[*:1])C(=O)[*:3]; Tyr(3-NO2) = N[CH](Cc1ccc(O)c([N+](=O)[O-])c1)C(=O)O; X1 = CC(C)(C1CO1)n1cc(CC(N[*:1])C(=O)[*:2])c2ccccc21; X2 = CC(CC(C(=O)[*:2])N(C)[*:1])C(=O)O; Gly(E-crotyl) = C/C=C/C[C@H](N)C(=O)O; ξNle(4,5-dehydro) = CC=CCC(N)C(=O)O; NMeL = CN[CH](CC(C)C)C(=O)O

Key:
M. smegmatis MC^2 155 = assay: Antimycobacterial broth dilution MIC; format: cell-based, Mycobacterium smegmatis
Protocol: (§1) To determine the antibacterial activities of these eight compounds (1–8), a preliminary screening of their antibacterial activities against a panel of Gram-positive and Gram-negative bacteria[6]–[8], M. smegmatis MC^2 155 and M. tuberculosis H37Rv, was conducted using a broth dilution method, [59]. Compounds 1–8 were dissolved in dimethylsulfoxide (DMSO) to give 3200 μg mL^−1 stock solutions. The stock solutions were then serially diluted to concentrations of 0.0625–128 μg mL^−1 with MH broth or 7H9 broth (added with 0.2% glycerol, 0.05% Tween 80). DMSO in MH broth or 7H9 broth was used as a negative control, and broth-containing bacteria was used as positive control. All experiments were performed in triplicate with kanamycin and rifampicin as control agents.

M. tuberculosis H37Rv = assay: Anti-TB broth dilution MIC; format: cell-based, Mycobacterium tuberculosis
[1] = test system: A549, human lung cancer cell line; assay: MTT cytotoxicity; format: cell-based
Protocol: (§2) Compounds 1–8 were evaluated for cytotoxicity using HeLa, HepG2, A549, CNE2, and MCF7 cell lines using a previously reported MTT method. The L02 and Huvec-12 cell lines were used as normal cell line controls. All these cell lines were obtained from American Type Culture Collection (ATCC) and cultured according to ATCC recommendations. Cell lines were checked for mycoplasma and profiled via short tandem repeat profiling to confirm their identity by the supplier. All experiments were performed in triplicate with doxorubicin and cis-platinum as control agents.

[2] = test system: CNE2, human nasopharyngeal carcinoma cell line; assay: MTT cytotoxicity; format: cell-based
Protocol: as §2

[3] = test system: HeLa, human cervical carcinoma cell line; assay: MTT cytotoxicity; format: cell-based
Protocol: as §2

[4] = test system: HepG2, human hepatocellular carcinoma cell line; assay: MTT cytotoxicity; format: cell-based
Protocol: as §2

[5] = test system: MCF7, human breast adenocarcinoma cell line; assay: MTT cytotoxicity; format: cell-based
Protocol: as §2

[6] = test system: Huvec-12, normal human umbilical vein endothelial cell line; assay: MTT cytotoxicity, normal cell line control; format: cell-based; conditions: Huvec-12 normal cell line
Protocol: as §2

[7] = test system: L02, normal human hepatic cell line; assay: MTT cytotoxicity, normal cell line control; format: cell-based
Protocol: as §2

[8] = test system: Acinetobacter baumanii ATCC19606; assay: Antibacterial broth dilution MIC; format: cell-based
Protocol: as §1

[9] = test system: Enterococcus faecalis ATCC29212; assay: Antibacterial broth dilution MIC; format: cell-based
Protocol: as §1

[10] = test system: Escherichia coli ATCC 25922; assay: Antibacterial broth dilution MIC; format: cell-based
Protocol: as §1

Micrococcus luteus SC-1 = assay: Antibacterial broth dilution MIC; format: cell-based
Protocol: as §1

[11] = test system: Staphylococcus aureus ATCC29213; assay: Antibacterial broth dilution MIC; format: cell-based
Protocol: as §1

MRSA shha-01 = assay: microbe, parasite or virus in culture; format: cell-based; conditions: Staphylococcus aureus
[12] = test system: human tumor cell lines and normal human cell lines; assay: MTT cytotoxicity, summary over human tumor and normal cell lines; format: cell-based; conditions: HeLa, HepG2, and A549 cell lines, read-out: IC50 values, range over cell lines
Protocol: as §2

[13] = test system: Mycobacterium tuberculosis H37Rv; design: method as in earlier work; conditions: M. tuberculosis H37Rv; cited from earlier work
[14] = Epimerization/interconversion of hemiaminal isomers followed by HPLC; format: physicochemical; conditions: non-aqueous solvents
From the text: An interesting feature we identified during HPLC studies is that compounds 7 and 6 epimerize/interconvert in […] solvents (e.g., MeOH or CH3CN); this interconversion also was noted under neat conditions following periods of long-term storage. […] The possibility interchange of these two pairs of compounds was postulated (Supplementary Fig. 34B). […] It is indeed interesting to consider that cyclic hemiaminal installation in ilamycins C1, C2, E1, and E2 is likely reflective of a transient C33 aldehyde and that the αOH orientation is preferred; presumably this is driven to some extent by the fixed stereochemical orientations at C24 and C32 in each respective case (Fig. 3f). By virtue of this interconversion chemistry it is significant to note that assays carried out with these agents likely involved the use of isomeric mixtures of 6/7 and 3/4 and no one specific isomer.

[15] = Mycolicibacterium smegmatis, MC^2155, read-out: MIC
[16] = Mycobacterium tuberculosis, H37RV, broth dilution, triplicate, n = 3
[17] = Acinetobacter baumannii, ATCC19606

Row | Compound | MIC (M. smegmatis MC^2 155; [15]) [µM] | MIC (M. tuberculosis H37Rv; [16]) [µM] | IC50 ([1]; Homo sapiens) [µM] | IC50 ([2]; Homo sapiens, CNE-2) [µM] | IC50 ([3]; Homo sapiens) [µM] | IC50 ([4]; Homo sapiens) [µM] | IC50 ([5]; Homo sapiens) [µM] | IC50 ([6]; Homo sapiens, Endothelial cell) [µM] | IC50 ([7]; Homo sapiens) [µM] | MIC [8, 17] [µM] | MIC [9] [µM] | MIC ([10]; ATCC25922) [µM] | MIC (Micrococcus luteus SC-1; SC1) [µM] | MIC [11] [µM] | MIC (MRSA shha-01) [µM] | also measured
1 | CC=CCC1NC(=O)C(CC(C)C)N2C(=O)C(CC(C)C2O)N(C)C(=O)C(C)NC(=O)C(Cc2ccc(O)c([N+](=O)[O-])c2)NC(=O)C(CC(C)C)N(C)C(=O)C(Cc2cn(C(C)(C)C3CO3)c3ccccc23)NC1=O (stereo not drawn) [3/4] | 0.12 (≈ 0.125 µg/mL) | 9.6 (≈ 10 µg/mL) | 3.5 | 6.8 | 3.3 | 3.2 | 4.5 | 33.8 | 7.4 | 123 (≈ 128 µg/mL) | > 123 | > 123 | > 123 | > 123 | > 123 | IC50 [12]: 3.2 to 6.2 µM
2 | C=CC(C)(C)n1cc(C[C@@H]2NC(=O)[C@H](C/C=C/C)NC(=O)[C@H](CC(C)C)N3C(=O)[C@H](C[C@H](C)C3O)N(C)C(=O)[C@H](C)NC(=O)[C@H](Cc3ccc(O)c([N+](=O)[O-])c3)NC(=O)[C@H](CC(C)C)N(C)C2=O)c2ccccc21 (stereo partly drawn) [6/7] | 30.7 (≈ 31.5 µg/mL) | 0.0098 (≈ 0.0101 µg/mL) | 6.2 | 14.9 | 3.9 | 4.9 | 3.9 | 18.6 | 14.9 | 125 (≈ 128 µg/mL) | > 125 | > 125 | > 125 | > 125 | > 125 | fold superior to positive control rifampin (MIC) (M. tuberculosis H37Rv): 30 fold; MIC (M. tuberculosis H37Rv; Mycobacterium tuberculosis, H37RV): ~0.0098 µM (≈ 0.0101 µg/mL); MIC (M. tuberculosis H37Rv; read-out: MIC): 0.0098 µM (≈ 0.0101 µg/mL); IC50 [12]: 3.2 to 6.2 µM
3 | N.N.[Cl][Pt][Cl] [Cis, Cisplatin, reference compound] | – | – | – | – | – | – | – | – | – | – | – | – | – | – | – | IC50 [1]: 9.3 µM; IC50 [2]: 12.9 µM; IC50 [3]: 5.2 µM; IC50 [4]: 2.5 µM; IC50 [5]: 14.1 µM; IC50 [6]: 34.5 µM; IC50 [7]: 22.7 µM
4 | COc1cccc2c1C(=O)c1c(O)c3c(c(O)c1C2=O)C[C@@](O)(C(=O)CO)C[C@@H]3O[C@H]1C[C@H](N)[C@H](O)[C@H](C)O1 [Dox, Doxorubicin, reference compound] | – | – | 3.4 | 3.6 | 0.98 | 1.2 | 3.4 | 34.3 | 13 | – | – | – | – | – | – | –
5 | NC[C@H]1O[C@H](O[C@H]2[C@H](O)[C@@H](O[C@H]3O[C@H](CO)[C@@H](O)[C@H](N)[C@H]3O)[C@H](N)C[C@@H]2N)[C@H](O)[C@@H](O)[C@@H]1O [Kanamycin, reference compound] | – | – | – | – | – | – | – | – | – | – | – | – | – | 0.85 (≈ 0.412 µg/mL) | – | MIC (M. smegmatis MC^2 155): 1.7^a μM; MIC ([8]; Acinetobacter baumanii ATCC19606): 3.4 µM (≈ 1.65 µg/mL); MIC [10]: 1.7 µM (≈ 0.824 µg/mL); MIC (Micrococcus luteus SC-1): 0.85 µM (≈ 0.412 µg/mL)
6 | CO[C@H]1/C=C/O[C@@]2(C)Oc3c(C)c(O)c4c(O)c(c(/C=N/N5CCN(C)CC5)c(O)c4c3C2=O)NC(=O)/C(C)=C\C=C\[C@H](C)[C@H](O)[C@@H](C)[C@@H](O)[C@@H](C)[C@H](OC(C)=O)[C@@H]1C [Rif, Rifampin, reference compound] | – | – | – | – | – | – | – | – | – | – | – | – | – | – | – | MIC (M. tuberculosis H37Rv; Mycobacterium tuberculosis, H37RV, broth dilution, triplicate, n = 3, read-out: MIC): 0.3 µM (≈ 0.247 µg/mL)
7 | C=CC(C)(C)n1cc(C[C@@H]2NC(=O)[C@H](C/C=C/C)NC(=O)[C@H](CC(C)C)NC(=O)[C@H](CC(C)C)N(C)C(=O)[C@H](C)NC(=O)[C@H](Cc3ccc(O)c([N+](=O)[O-])c3)NC(=O)[C@H](CC(C)C)N(C)C2=O)c2ccccc21 [compound 1, ilamycin B1] (cyclo(A[NMeL]L[Gly(E-crotyl)][Trp(1-(1,1-Me2-allyl))][NMeL][Tyr(3-NO2)])) | > 126 | 98.9 (≈ 100 µg/mL) | > 50 | > 50 | > 50 | > 50 | > 50 | > 50 | > 50 | 126 (≈ 128 µg/mL) | > 126 | > 126 | > 126 | > 126 | > 126 | –
8 | CC=CCC1NC(=O)C(CC(C)C)NC(=O)C(CC(C)C)N(C)C(=O)C(C)NC(=O)C(Cc2ccc(O)c([N+](=O)[O-])c2)NC(=O)C(CC(C)C)N(C)C(=O)C(Cc2cn(C(C)(C)C3CO3)c3ccccc23)NC1=O (stereo not drawn) [compound 2, ilamycin B2] (cyclo([ξNle(4,5-dehydro)][X1][NMeL][Tyr(3-NO2)]A[NMeL]L); configuration not given here) | > 124 | 2.4 (≈ 2.47 µg/mL) | 13.8 | 24.5 | 7.1 | 8.9 | 17.4 | 18.6 | 24.6 | 124 (≈ 128 µg/mL) | > 124 | > 124 | > 124 | > 124 | > 124 | –
9 | CC=CCC1NC(=O)C(CC(C)C)N2C(=O)C(CC(C)C2O)N(C)C(=O)C(C)NC(=O)C(Cc2ccc(O)c([N+](=O)[O-])c2)NC(=O)C(CC(C)C)N(C)C(=O)C(Cc2cn(C(C)(C)C3CO3)c3ccccc23)NC1=O (stereo not drawn) [compound 3, ilamycin C1] | – | – | – | – | – | – | – | – | – | – | – | – | – | – | – | MIC [13]: < 1.3 µg/mL
10 | CC=CCC1NC(=O)C(CC(C)C)NC(=O)C(CC(C)C(=O)O)N(C)C(=O)C(C)NC(=O)C(Cc2ccc(O)c([N+](=O)[O-])c2)NC(=O)C(CC(C)C)N(C)C(=O)C(Cc2cn(C(C)(C)C3CO3)c3ccccc23)NC1=O (stereo not drawn) [compound 5, ilamycin D] (cyclo([X2]L[ξNle(4,5-dehydro)][X1][NMeL][Tyr(3-NO2)]A); configuration not given here) | 30.3 (≈ 32.1 µg/mL) | 1.2 (≈ 1.27 µg/mL) | > 50 | > 50 | > 50 | > 50 | > 50 | > 50 | > 50 | 121 (≈ 128 µg/mL) | > 121 | > 121 | > 121 | > 121 | > 121 | –
11 | C=CC(C)(C)n1cc(C[C@@H]2NC(=O)[C@H](C/C=C/C)NC(=O)[C@H](CC(C)C)N3C(=O)[C@H](C[C@H](C)[C@H]3O)N(C)C(=O)[C@H](C)NC(=O)[C@H](Cc3ccc(O)c([N+](=O)[O-])c3)NC(=O)[C@H](CC(C)C)N(C)C2=O)c2ccccc21 [compound 6, ilamycin E1] | – | – | – | – | – | – | – | – | – | – | – | – | – | – | – | stability [14]: reasonably stable
12 | C=CC(C)(C)n1cc(C[C@@H]2NC(=O)[C@H](C/C=C/C)NC(=O)[C@H](CC(C)C)NC(=O)[C@H](C[C@H](C)C(=O)O)N(C)C(=O)[C@H](C)NC(=O)[C@H](Cc3ccc(O)c([N+](=O)[O-])c3)NC(=O)[C@H](CC(C)C)N(C)C2=O)c2ccccc21 [compound 8, ilamycin F] (cyclo(A[NMeGlu(4S-Me)]L[Gly(E-crotyl)][Trp(1-(1,1-Me2-allyl))][NMeL][Tyr(3-NO2)])) | 30.7 (≈ 32 µg/mL) | 1.2 (≈ 1.25 µg/mL) | > 50 | > 50 | > 50 | > 50 | > 50 | > 50 | > 50 | 123 (≈ 128 µg/mL) | > 123 | > 123 | > 123 | > 123 | > 123 | –
